We go through 34 compounds from US10508077B2 (FORMA Therapeutics, Inc., priority 2015, dated 2019).

The target of the test is T1, Full length human recombinant HDAC8 protein (Homo sapiens, UniProt Q9BY41).
T1 construct: Full length human recombinant HDAC8 protein was expressed in baculoviral system; made in house
T1 sequence (Q9BY41 1-377): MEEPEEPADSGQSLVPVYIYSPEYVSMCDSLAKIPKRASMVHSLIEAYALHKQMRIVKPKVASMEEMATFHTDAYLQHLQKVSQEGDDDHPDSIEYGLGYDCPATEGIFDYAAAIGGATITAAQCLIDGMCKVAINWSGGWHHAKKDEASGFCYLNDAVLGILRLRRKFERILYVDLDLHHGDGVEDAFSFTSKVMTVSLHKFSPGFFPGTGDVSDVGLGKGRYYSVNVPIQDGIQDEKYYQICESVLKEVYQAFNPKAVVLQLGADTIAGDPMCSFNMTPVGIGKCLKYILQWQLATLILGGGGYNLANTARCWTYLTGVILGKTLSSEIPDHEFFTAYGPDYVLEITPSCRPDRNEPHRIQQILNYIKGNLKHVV
In words: In vitro histone deacetylase assay: enzymatic HDAC8 assay, electrophoretic mobility shift. The note with it: substrate RHKK(Ac)-NH2, 1 nM enzyme, compounds listed under IC50 range headings. In kind it is biochemical. Summed up:
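Baculovirus-expressed full-length human HDAC8 (1 nM) deacetylated 2 µM fluorescent RHKK(Ac)-NH2 peptide in pH 7.5 HEPES, 1% DMSO, at 25 °C, with 12 compound concentrations at 3× spacing. SDS-quenched; product and substrate resolved by microfluidic electrophoresis, P/(S+P) converted to percent inhibition, and IC50 obtained by 4-parameter fit.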
(In EMSA bound probe runs differently from free probe, usually more slowly.)

For the compound `O=C(/C=C/c1ccccc1N1CCN(S(=O)(=O)c2ccc(C(F)(F)F)nc2)CC1)NO` [Example I-248, (E)-N-hydroxy-3-(2-(4-((6-(trifluoromethyl)pyridin-3-yl)sulfonyl)piperazin-1-yl)phenyl)acrylamide], the half-inhibitory concentration (IC50) was under 1 µM.
On to `O=C(/C=C/c1ccccc1N1CCC(NC(=O)CC2CCS(=O)(=O)CC2)CC1)NO` [Example I-151, (E)-3-(2-(4-(2-(1,1-dioxidotetrahydro-2H-thiopyran-4-yl)acetamido)piperidin-1-yl)phenyl)-N-hydroxyacrylamide], for which the IC50 is under 1 µM.
Regarding `O=C(/C=C/c1ccccc1N1CC2CC1CN2C(=O)Cc1ccc(Cl)cc1)NO` [Example I-316, (E)-3-(2-((1S,4S)-5-(2-(4-chlorophenyl)acetyl)-2,5-diazabicyclo[2.2.1]heptan-2-yl)pheynyl)-N-hydroxyacrylamide], the IC50 was under 1 µM.
Take `COc1ccc(S(=O)(=O)N2CCN(c3ccccc3/C=C/C(=O)NO)CC2)cc1OC` [Example I-256, (E)-3-(2-(4-((3,4-dimethoxyphenyl)sulfonyl)piperazin-1-yl)phenyl)-N-hydroxyacrylamide]: the half-inhibitory concentration (IC50) is under 1 µM.
With `O=C(/C=C/c1ccccc1N1CCN(C(=O)Nc2ccc(OC(F)(F)F)cc2)CC1=O)NO` [Example I-528, (E)-4-(2-(3-(hydroxyamino)-3-oxoprop-1-en-1-yl)phenyl)-3-oxo-N-(4-(trifluoromethoxy)phenyl)piperazine-1-carboxamide], the IC50 is under 1 µM.
In the case of `CS(=O)(=O)N1CCCC(C(=O)NC2CCN(c3ccccc3/C=C/C(=O)NO)CC2)C1` (stereo not shown) [Example I-127], the IC50 was under 1 µM.
Regarding `Cc1oc(-c2ccccc2)cc1C(=O)Nc1ccccc1/C=C/C(=O)NO` [Example I-271, (E)-N-(2-(3-(hydroxyamino)-3-oxoprop-1-en-1-yl)phenyl)-2-methyl-5-phenylfuran-3-carboxamide], the half-inhibitory concentration (IC50) is under 1 µM.
As to `O=C(/C=C/c1ccccc1N1C[C@@H]2C[C@H]1CN2C(=O)C1(c2ccc(Cl)cc2)CC1)NO` [Example I-329, (E)-3-(2-((1S,4S)-5-(1-(4-chlorophenyl)cyclopropane-1-carbonyl)-2,5-diazabicyclo[2.2.1]heptan-2-yl)phenyl)-N-hydroxyacrylamide], the half-inhibitory concentration (IC50) was under 1 µM.
With `CC(C)(C)OC(=O)NC1CCN(c2ccccc2/C=C/C(=O)NO)CC1` [Example I-60, tert-butyl (E)-(1-(2-(3-(hydroxyamino)-3-oxoprop-1-en-1-yl)phenyl)piperidin-4-yl)carbamate], the half-maximal inhibitory concentration (IC50) was under 1 µM.
For `O=C(/C=C/c1ccccc1N1CCN(C(=O)CC23CCCN2CCC3)CC1)NO` [Example I-24, (E)-N-hydroxy-3-(2-(4-(2-(tetrahydro-1H-pyrrolizin-7a(5H)-yl)acetyl)piperazin-1-yl)phenyl)acrylamide], the IC50 was in the range of 1 to 10 µM.
For the compound `O=C(/C=C/c1ccccc1NC(=O)c1cc2n(n1)CCC2)NO` [Example I-74, (E)-N-(2-(3-(hydroxyamino)-3-oxoprop-1-en-1-yl)phenyl)-5,6-dihydro-4H-pyrrolo[1,2-b]pyrazole-2-carboxamide], the IC50 was under 1 µM.
The value for `Cc1nc(CC(=O)NC2CCN(c3ccccc3/C=C/C(=O)NO)CC2)c(C)s1` [Example I-158, (E)-3-(2-(4-(2-(2,5-dimethylthiazol-4-yl)acetamido)piperidin-1-yl)phenyl)-N-hydroxyacrylamide] was under 1 µM.
Turning to `CN1CCCC(C(=O)N2CCN(c3ccccc3/C=C/C(=O)NO)CC2)C1` (stereo not shown) [Example I-209, (E)-N-hydroxy-3-(2-(4-(1-methylpiperidine-3-carbonyl)piperazin-1-yl)phenyl)acrylamide], the half-inhibitory concentration (IC50) is under 1 µM.
On to `CS(=O)(=O)CCCC(=O)NC1CCN(c2ccccc2/C=C/C(=O)NO)CC1` [Example I-136, (E)-N-(1-(2-(3-(hydroxyamino)-3-oxoprop-1-en-1-yl)phenyl)piperidin-4-yl)-4-(methylsulfonyl)butan-amide], for which the IC50 is under 1 µM.
Take `O=C(/C=C/c1ccccc1NC(=O)c1ccc(-n2cccc2)nc1)NO` [Example I-273, (E)-N-(2-(3-(hydroxyamino)-3-oxoprop-1-en-1-yl)phenyl)-6-(1H-pyrrol-1-yl)nicotinamide]: the concentration for half-maximal inhibition (IC50) was under 1 µM.
As for `O=C(/C=C/c1ccccc1C(=O)N1CCC(F)(F)CC1)NO` [II-17, (E)-3-(2-(4,4-difluoropiperidine-1-carbonyl)phenyl)-N-hydroxyacrylamide], the IC50 is under 1 µM.
In the case of `O=C(/C=C/c1ccccc1C(=O)N1C2CCC1CC2)NO` [II-12, (E)-3-(2-(7-azabicyclo[2.2.1]heptane-7-carbonyl)phenyl)-N-hydroxyacrylamide] it was 1 to 10 µM.
On to `COc1ccc(CC(=O)NC2CCN(c3ccccc3/C=C/C(=O)NO)CC2)cc1` [Example I-9, (E)-N-hydroxy-3-(2-(4-(2-(4-methoxyphenyl)acetami-do)piperidin-1-yl)phenyl)acrylamide], for which the 50% inhibitory concentration (IC50) lay within 1 to 10 µM.
`O=C(/C=C/c1ccccc1N1CCN(Cc2ccc(C(F)(F)F)nc2)CC1)NO` [Example I-165, (E)-N-hydroxy-3-(2-(4-((6-(trifluoromethyl)pyridin-3-yl)methyl)piperazin-1-yl)phenyl)acrylamide]: the 50% inhibitory concentration (IC50) is under 1 µM.
In the case of `CC(C)c1ccc(C(=O)NC2CCN(c3ccccc3/C=C/C(=O)NO)CC2)nc1` [Example I-154, (E)-N-(1-(2-(3-(hydroxyamino)-3-oxoprop-1-en-1-yl)phenyl)piperidin-4-yl)-5-isopropylpicolinamide], the IC50 was under 1 µM.
Take `CN1CC(C(=O)NC2CCN(c3ccccc3/C=C/C(=O)NO)CC2)C1` [Example I-12, (E)-N-(1-(2-(3-(hydroxyamino)-3-oxoprop-1-en-1-yl)phenyl)piperidin-4-yl)-1-methylazetidine-3-carboxamide]: the IC50 lay within 1 to 10 µM.
Turning to `CN(CC(=O)NC1CCN(c2ccccc2/C=C/C(=O)NO)CC1)S(C)(=O)=O` [Example I-144, (E)-N-hydroxy-3-(2-(4-(2-(N-methylmethylsulfonamido)acetamido)piperidin-1-yl)phenyl)acrylamide], the half-inhibitory concentration (IC50) is under 1 µM.
Regarding `O=C(/C=C/c1ccccc1N1CCN(S(=O)(=O)c2ccc(Cl)s2)CC1)NO` [Example I-253, (E)-3-(2-(4-((5-chlorothiophen-2-yl)sulfonyl)piperazin-1-yl)phenyl)-N-hydroxyacrylamide], the half-inhibitory concentration (IC50) is under 1 µM.
In the case of `O=C(/C=C/c1ccccc1N1CCN(Cc2cn3ccccc3n2)CC1)NO` [Example I-188, (E)-N-hydroxy-3-(2-(4-(imidazo[1,2-a]pyridin-2-ylmethyl)piperazin-1-yl)phenyl)acrylamide] it was under 1 µM; in that of `CC(C)Nc1ncc(CNc2ccccc2/C=C/C(=O)NO)cn1` [Example I-105, (E)-N-hydroxy-3-(2-(((2-(isopropylamino)pyrimidin-5-yl)methyl)amino)phenyl)acrylamide], under 1 µM.
As to `Cc1nn(C)c(Cl)c1S(=O)(=O)NC1CCN(c2ccccc2/C=C/C(=O)NO)CC1` [Example I-218, (E)-3-(2-(4-((5-chloro-1,3-dimethyl-1H-pyrazole)-4-sulfonamido)piperidin-1-yl)phenyl)-N-hydroxyacrylamide], the IC50 is under 1 µM.
The value for `O=C(/C=C/c1ccccc1N1CCN(S(=O)(=O)Cc2cccc(F)c2)CC1)NO` [Example I-257, (E)-3-(2-(4-((3-fluorobenzyl)sulfonyl)piperazin-1-yl)phenyl)-N-hydroxyacrylamide] was under 1 µM.
On to `O=C(/C=C/c1ccccc1N1CCC(NC(=O)C2CCCCC2)CC1)NO` [Example I-126, (E)-N-(1-(2-(3-(hydroxyamino)-3-oxoprop-1-en-1-yl)phenyl)piperidin-4-yl)cyclohexanecarboxamide], for which the IC50 was under 1 µM.
In the case of `CN(C)Cc1ccccc1CN1CCN(c2ccccc2/C=C/C(=O)NO)CC1` [Example I-162, (E)-3-(2-(4-(2-((dimethylamino)methyl)benzyl)piperazin-1-yl)phenyl)-N-hydroxyacrylamide] it was under 1 µM; in that of `Cn1cc(-c2ncc(C(=O)Nc3ccccc3/C=C/C(=O)NO)s2)cn1` [Example I-285, (E)-N-(2-(3-(hydroxyamino)-3-oxoprop-1-en-1-yl)phenyl)-2-(1-methyl-1H-pyrazol-4-yl)thiazole-5-carboxamide], under 1 µM; in that of `O=C(/C=C/c1ccccc1N1CCC(NS(=O)(=O)c2cccnc2)CC1)NO` [Example I-221, (E)-N-hydroxy-3-(2-(4-(pyridine-3-sulfonamido)piperidin-1-yl)phenyl)acrylamide], under 1 µM.
In the case of `O=C(/C=C/c1ccccc1C(=O)N1CCN(c2ccncc2)CC1)NO` [II-20] it was under 1 µM.
As to `O=C(/C=C/c1ccccc1N1CCN(S(=O)(=O)C2CCOCC2)CC1)NO` [Example I-255, (E)-N-hydroxy-3-(2-(4-((tetrahydro-2H-pyran-4-yl)sulfonyl)piperazin-1-yl)phenyl)acrylamide], the IC50 is under 1 µM.
With `CS(=O)(=O)N1CCC(CC(=O)NC2CCN(c3ccccc3/C=C/C(=O)NO)CC2)CC1` [Example I-135, (E)-N-hydroxy-3-(2-(4-(2-(1-(methylsulfonyl)piperidin-4-yl)acetamido)piperidin-1-yl)phenyl)acrylamide], the half-maximal inhibitory concentration (IC50) was under 1 µM.

Usually IC50 stands for the concentration at which inhibition is half-maximal.
